Test results published in US20250262167A1, “COMPOUNDS, TARGETS AND PATHWAYS FOR MACROPHAGE MODULATION” (Massachusetts Institute of Technology, priority 2020, published 2025).
Where a name gives a salt, the structure may show the parent alone.

Assays:
[1] = test system: human monocyte-derived macrophages (hMDMs); test: High throughput phenotypic screen of macrophage activation (cell shape, Z-score); assay type: cell-based; parameters: key to Average Z-value: Z-score vs DMSO; negative = round cells, positive = elongated; details: for activation state induced in the screen: compounds regulating actin-cytoskeleton; for cell shape induced: known M1-/M2-activating stimuli;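 for all read-outs here: phalloidin and DAPI stained hMDMs imaged by high-content microscopy, cell eccentricity compared with DMSO control by T-test, round morphology scored negative, elongated positive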
Experimental: The Z-score was calculated by T-test to measure the difference of cell morphology between treatment and control. Stimuli had negative Z-scores when induced cells to round morphology and positive scores when induced cells to elongated morphology. […] Equally mixed human monocytes isolated from fresh blood of 4 healthy donors were cultured in vitro with 50 ng/mL M-CSF for 7 days. hMDMs were trypsinized and plated on 384-well plates (5000 cells/well in 50 μL). Cells were recovered in 10 ng/mL M-CSF for 16 hrs and then treated with compounds for 24 hrs. Cells were washed, fixed and stained with Phalloidin and DAPI. The plates were scanned with a high-content microscope with six-fields per well to quantify the cell number and cell morphology. […] The cell eccentricity was calculated to measure the cell morphology. The Z-score was calculated by T-test to measure the difference in cell morphologies between each compound and DMSO control.
Cells were treated with a library of over 4000 individual compounds or drugs at the final concentration of 20 μM using the CyBi-Well simultaneous pipettor (CyBio). […] After 24 hr incubation, supernatants were removed using the microplate washer (Bioteck) and cells were fixed by adding 50 μL 16% paraformaldehyde (Thermo Scientific) with the dispenser for 20 minutes. Cells were then washed with 50 μL 1×PBS twice and incubated for 20 minutes with NucBlue and AF746 Phalloidin (Invitrogen) to stain nucleus and cytoskeleton. Cells were then washed with 50 μL 1×PBS twice and maintained in PBS for the image acquirement. Plates were read in the Opera Phenix high content screening system (PerkinElmer) to photograph cells using 20× objective in 2 fluorescent channels (Blue and FarRed). A total of 6 different fields in each well and an average of 1,000 cells were imaged per well. CellProfiler was used to identify each cell by overlapping signals from its nucleus and cytoskeleton, and calculate the eccentricity as the parameter to measure the cell morphology. The Z-score was calculated by T-test to measure the difference of cell morphology between each treatment and control. For each row of the 384-well plate, total 4 wells with first and last two columns treated with the same concentration of DMSO were combined as the control for the other 20 treatment wells in that row. In the meantime, classic M1 and M2 stimuli were added to generate the gold-standard Z-score cutoffs with M1 or M2 activation. Classic M1 stimuli include LPS (100 ng/mL), IFNγ (50 ng/mL, Peprotech), TNFα (50 ng/mL, Peprotech), or IFNγ plus TNFα. Classic M2 stimuli include IL-10 (10 ng/mL, Peprotech), IL-4 (10 ng/mL, Peprotech), or IL-13 (5 ng/mL, Peprotech).

[2] = test system: hMDMs differentiated into M1 by IFNγ plus TNFα; test: Reprogramming screen and dosage response on M1-like differentiated macrophages; assay type: cell-based, human; details: for EC (M2 Z-score cutoff): M2-activating compounds on M1-like macrophages (IFNγ plus TNFα), EC = concentration reaching Z-score cutoff; for Category: differentiated macrophages
Experimental: Data were summarized from 3 independent experiments.
Human macrophages were seeded into optical 384-well plates. Sixteen hours later, medium in M1 plates were replaced by M1 differentiating medium (complete RPMI with 50 ng/mL IFNγ and 50 ng/mL TNFα) and medium in M2 plates by M2 differentiating medium (complete RPMI with 5 ng/mL IL-4 and 5 ng/mL IL-13). After 24 hrs cell differentiation, M1 plates (M1 macrophages) and M2 plates (M2 macrophages) were treated with M2-activating compounds and M1-activating compounds respectively for 24 hrs. Two independent experiments were performed with or without replacing differentiating medium right before treatment. Cell imaging and analysis were performed as indicated above.
To investigate whether the identified compounds could reprogram or reactivate macrophages after M1- or M2-like differentiation, we rescreened the hits on M1- or M2-activated macrophages. hMDMs were activated into M2-like macrophages by IL-4 plus IL-13 or M1-like macrophages by IFNγ plus TNFα. […] 24 hours later, cell images were taken and cell shapes were quantified.
We also rescreened the hits on differentiated macrophages in the presence of differentiating cytokines: either IL-4 plus IL-13 or IFNγ plus TNFα.

[3] = test system: hMDMs differentiated into M2 by IL-4 plus IL-13; test: Reprogramming screen and dosage response on M2-like differentiated macrophages; details: for EC (M1 Z-score cutoff): Homo sapiens, Macrophage, 24 h, read-out: EC; for EC: M1-activating compounds on M2-like macrophages (IL-4 plus IL-13), EC = concentration reaching Z-score cutoff; for Category: differentiated macrophages;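 for all read-outs here: human monocyte-derived macrophages held 24 h in 5 ng/mL IL-4 plus IL-13 before 24 h compound exposure, with cell shape measured from images in 384-well plates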
[4] = cell shape Z-score of hMDMs treated with compound at 20 µM for 24 hours, averaged over the compounds listed for the WikiPathways pathway, negative = M1-like, positive = M2-like
[5] = cell shape Z-score of hMDMs averaged over the compounds listed for the Wiki pathway, compounds at 20 µM for 24 hours, positive values = M2-like
[6] = average cell-shape Z-score of the listed compounds whose targets fall in the Wiki pathway, hMDMs, 20 µM, 24 hours, M1-activating compounds (negative Z)

O=C1Nc2ccccc2C2=NC(CN3CCN(c4ccccc4)CC3)CN12 (stereo not shown)
Average Z-value [1, 4]: −9.21

CC(C)(C)n1nc(-c2cccc3ccccc23)c2c(N)ncnc21 [1-Naphthyl PP1]
EC (M2 Z-score cutoff) [2]: 2.072 µM | Category [2]: M2 (6 for M2-activated macrophages)

CC1(C)C(=O)C=C[C@]2(C)[C@H]3CC[C@@]4(C)[C@H](c5ccoc5)OC(=O)[C@H]5O[C@]54[C@]3(C)C=C[C@@H]12 [7-DESACETOXY-6,7-DEHYDROGEDUNIN]
Average Z-value [1, 5]: 7.92

CCCCC[C@H](O)/C=C/[C@H]1[C@H](O)CC(=O)[C@@H]1CCCCCCC(=O)O [Alprostadil]
EC (M1 Z-score cutoff) [3]: 0.0562 µM | Average Z-value [1, 4]: −4.86

O=C1Cc2c([nH]c3ccc([N+](=O)[O-])cc23)-c2ccccc2N1 [Alsterpaullone]
Average Z-value [1, 5]: 12.55

O=C1NC(=O)c2c1c1c3ccccc3[nH]c1c1[nH]c3ccccc3c21 [Arcyriaflavin A]
EC (M2 Z-score cutoff) [2]: 1.342 µM | Category [2]: M2 (6 for M2-activated macrophages)

CNC(=O)c1ccccc1Sc1ccc2c(/C=C/c3ccccn3)n[nH]c2c1 [Axitinib]
EC (M2 Z-score cutoff) ([2]; Homo sapiens, Macrophage, 24 h): 0.591 µM

COc1cc(Nc2c(C#N)cnc3cc(OCCCN4CCN(C)CC4)c(OC)cc23)c(Cl)cc1Cl [Bostunib]
EC (M2 Z-score cutoff) ([2]; Homo sapiens, Macrophage, 24 h): 0.164 µM

CCOc1nc2cccc(C(=O)OC(C)OC(=O)OC3CCCCC3)c2n1Cc1ccc(-c2ccccc2-c2nn[nH]n2)cc1 (stereo not shown) [CANDESARTAN CILEXTIL]
Average Z-value [1, 4]: −4.32

Cc1c[nH]c(-c2cnc(NCCNc3ccc(C#N)cn3)nc2-c2ccc(Cl)cc2Cl)n1 [CHIR-99021]
Average Z-value [1, 4]: −4.52

C[C@@]12C(=O)OC(=O)[C@]1(C)[C@H]1CC[C@@H]2O1 [Cantharidin]
EC (M1 Z-score cutoff) [3]: 0.159 µM

COc1cc2c(cc1OC)[C@@H]1C(=O)c3ccc4c(c3O[C@@H]1CO2)C[C@H](C(C)C)O4 [DIHYDROROTENONE]
Average Z-value [1, 4]: −5.14

OCCN(CCO)c1nc(N2CCCCC2)c2nc(N(CCO)CCO)nc(N3CCCCC3)c2n1 [DIPYRIDAMOLE]
Average Z-value [1, 6]: −4.41 | Average Z-value [1, 4]: −4.41

Cc1nc(Nc2ncc(C(=O)Nc3c(C)cccc3Cl)s2)cc(N2CCN(CCO)CC2)n1 [Dasatinib]
EC (M2 Z-score cutoff) ([2]; Homo sapiens, Macrophage, 24 h): 0.762 µM

c1cc(-c2cnn3cc(-c4ccc(OCCN5CCCCC5)cc4)cnc23)ccn1 [Dorsomorphin dihydrochloride]
Average Z-value [1, 5]: 11.09

CN(C)CCC=C1c2ccccc2COc2ccccc21 [Doxepine HCl]
Average Z-value [1, 5]: 6.87

COc1cc2ncn(-c3cc(OCc4ccccc4C(F)(F)F)c(C(N)=O)s3)c2cc1OC [GW-843682X]
EC (M2 Z-score cutoff) ([2]; Homo sapiens, Macrophage, 24 h): 0.897 µM

Cl.Cl.O=S(=O)(NCCNC/C=C/c1ccc(Br)cc1)c1cccc2cnccc12 [H 89 dihydrochloride]
Average Z-value [1, 5]: 7.14

COc1ccc(S(=O)(=O)N(C(C)=O)c2ccccc2/C=C/c2cc[n+]([O-])cc2)cc1 [HMN214]
EC (M1 Z-score cutoff) [3]: 1.48 µM

O=C(c1ccc(Nc2nccc(-c3cc4ccccc4s3)n2)cc1)N1CCC(N2CCCC2)CC1 [IKK 16]
Average Z-value [1, 6]: −4.98

O=C(O)c1nn(Cc2ccc(Cl)cc2Cl)c2ccccc12 [LONIDAMINE]
Average Z-value [1, 5]: 6.13

COc1cc(C(=O)N2CCC(N3CCN(C)CC3)CC2)ccc1Nc1ncc2c(n1)N(C)c1ccccc1C(=O)N2C [LRRK2-IN-1]
Average Z-value [1, 5]: 8.88

O=C1c2c(O)ccc(O)c2C(=O)c2c(NCCNCCO)ccc(NCCNCCO)c21 [MITOXANTRONE HYDROCHLORIDE]
EC (M1 Z-score cutoff) [3]: 0.559 µM

COc1c(C)c2c(c(O)c1C/C=C(\C)CCC(=O)O)C(=O)OC2 [Mycophenolic acid]
Average Z-value [1, 4]: −4.54

O=C(Nc1ccc([N+](=O)[O-])cc1Cl)c1cc(Cl)ccc1O [Niclosamide]
EC (M1 Z-score cutoff) [3]: 1.13 µM

CCC[C@H](N[C@@H](C)C(=O)N1[C@H](C(=O)O)C[C@@H]2CCCC[C@@H]21)C(=O)OCC [PERINDOPRIL ERBUMINE]
Average Z-value [1, 5]: 7.27

Cc1nc(Nc2[nH]nc3c2CN(C(=O)N[C@H](CN(C)C)c2ccccc2)C3(C)C)c2sccc2n1 [PF-3758309]
Average Z-value [1, 4]: −4.29

OC1(c2ccc(Cl)c(C(F)(F)F)c2)CCN(CCCC(c2ccc(F)cc2)c2ccc(F)cc2)CC1 [Penfluridol]
EC (M1 Z-score cutoff) [3]: 0.169 µM

Cc1oc(=O)oc1CN1CCN(c2cc3c(cc2F)c(=O)c(C(=O)O)c2n3C(C)S2)CC1 (stereo not shown) [Prulifloxacin]
EC (M1 Z-score cutoff) [3]: 15 µM

CC1=C(/C=C/C(C)=C/C=C/C(C)=C/C(=O)O)C(C)(C)CCC1 [Retinoic acid]
Average Z-value [1, 5]: 6.86

CC[C@@]1(O)C(=O)OCc2c1cc1n(c2=O)Cc2cc3c([N+](=O)[O-])cccc3nc2-1 [Rubitecan]
Average Z-value [1, 4]: −4.17

CC(C)c1ccc(Cn2ccc3c4c(N)nc(NC5CC5)nc4ccc32)cc1.Cl.Cl [SCH 79797 dihydrochloride]
EC [3]: 0.2194 µM | Category [3]: M1 (−4 for M1-activated macrophages)

Cc1ccc(O)c(N=Nc2ccccc2)n1 [SIB 1757]
Average Z-value [1, 4]: −7.89

O=C1c2ccccc2-c2nc3nonc3nc21 [SMER3]
EC [3]: 0.09398 µM | Category [3]: M1 (−4 for M1-activated macrophages)

CCCS(=O)(=O)Nc1ccc(F)c(C(=O)c2c[nH]c3ncc(-c4ccc(Cl)cc4)cc23)c1F [Vemurafenib]
Average Z-value [1, 4]: −8.55

CCC[C@H](NC(=O)/C(C#N)=C/c1cccc(Br)n1)c1ccccc1 [WP1130]
EC [3]: 15 µM | Category [3]: M1 (−4 for M1-activated macrophages)

COc1cc2c(c(OC)c1OC)-c1ccc(OC)c(=O)cc1[C@@H](NC(C)=O)CC2 [colchicine]
activation state induced in the screen [1]: M2-activating

C=C1[C@@H](C)[C@H]2[C@H](Cc3ccccc3)NC(=O)[C@]23OC(=O)/C=C/[C@H](O)CCC[C@@H](C)C/C=C/[C@H]3[C@@H]1O [cytochalasin B]
Average Z-value [1, 4]: −20.00

C=C1[C@@H](C)[C@H]2[C@H](Cc3ccccc3)NC(=O)[C@]23OC(=O)/C=C/[C@H](O)CCC[C@@H](C)C/C=C/[C@H]3[C@@H]1O [cytochalasin-B]
activation state induced in the screen [1]: M1-activating

COC(=O)Nc1nc2ccc(SC(C)C)cc2[nH]1 [methiazole]
activation state induced in the screen [1]: M1-activating

CC[C@@H]1/C=C/C=C/C[C@H](C)[C@H](O)[C@](C)(O)C(=O)[C@H](C)[C@@H](O)[C@H](C)C(=O)[C@H](C)[C@@H](O)[C@H](C)/C=C/C(=O)O[C@H]2[C@@H](C)[C@@H](CC1)O[C@@]1(CC[C@@H](C)[C@@H](C[C@H](C)O)O1)[C@@H]2C [oligomycin A]
Average Z-value [1, 5]: 7.16

CCCCc1ccc2[nH]c(NC(=O)OC)nc2c1 [parbendazole]
activation state induced in the screen [1]: M1-activating

COc1cc([C@@H]2c3cc4c(cc3[C@H](O)[C@H]3COC(=O)[C@H]23)OCO4)cc(OC)c1OC [podofilox]
activation state induced in the screen [1]: M2-activating

Cc1onc(-c2ccccc2)c1-c1ccc(S(N)(=O)=O)cc1 [valdecoxib]
Average Z-value [1, 5]: 8.60

CC[C@]1(O)C[C@@H]2CN(CCc3c([nH]c4ccccc34)[C@@](C(=O)OC)(c3cc4c(cc3OC)N(C)[C@H]3[C@@](O)(C(=O)OC)[C@H](OC(C)=O)[C@]5(CC)C=CCN6CC[C@]43[C@@H]65)C2)C1 [vinblastine sulfate]
activation state induced in the screen [1]: M2-activating

(−)-Epigallocatechin Gallate
Average Z-value [1, 5]: 7.36

Evodiamine
EC [3]: 0.6799 µM

IL13: classic M2 stimulus
cell shape induced [1]: elongated cell shape

TNFα
cell shape induced [1]: round shape

YK 4-279
Average Z-value [1, 4]: −7.60

lipopolysaccharide [LPS]
cell shape induced [1]: round shape
